Assay results from US8178658B2 (Dow AgroSciences, LLC, priority 2008, dated 2012).

Experiments:
[1] = test system: beet armyworm (BAW; Spodoptera exigua: Lepidoptera); experiment: 128-well diet tray assay on beet armyworm (BAW 50); assay type: in vivo; conditions: for BAW 50 ug/cm2: 128-well diet tray assay, 50 μg/cm^2 of test compound on diet, second instar BAW larvae, mortality class; for pest or weed control at 50 µg/cm2, 50 µg/cm2: Spodoptera exigua, 144 h, read-out: BAW 50 ug/cm2
Outline: (§1)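 Two diet-incorporation-style surface tests were run. Eggs infested treated diet (12 μg/well) in plates incubated dark at 29° C, with mortality taken on day 6 from six replicates. Separately, second-instar larvae fed on treated diet (50 μg/cm^2) at 25° C, 14:10 L:D, with six-day mortality averaged over eight wells.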

[2] = test system: beet armyworm (BAW; Spodoptera exigua: Lepidoptera); experiment: 96-well microtiter plate-based high throughput (HTS) diet bioassay on beet armyworm (BAW HTS); assay type: in vivo; conditions: for BAW HTS: BAW eggs, 12 μg test compound per well, mortality at 6 d post-treatment, mortality class; for pest or weed control at 12 µg/well, 12 µg/well: Spodoptera exigua, 144 h, read-out: BAW HTS
Outline: as §1

[3] = 96-well microtiter plate HTS diet assay

CCO[C@@H]1[C@@H](OC)[C@H](C)O[C@@H](OC(=O)Nc2ccc(-c3ncn(-c4ccc(OC(F)(F)F)cc4)n3)cc2Br)[C@@H]1OC [Compound 223]
BAW 50 ug/cm2 [1]: A (the compound was tested and at least 50 percent mortality was observed) | BAW HTS ([2]; 96-well HTS diet assay): B (either (1) the compound was tested and less than 50 percent mortality was observed or (2) the compound was not tested) | BAW HTS [2, 3]: B (either (1) the compound was tested and less than 50 percent mortality was observed or (2) the compound was not tested)

CCCO[C@@H]1[C@@H](OC)[C@H](C)O[C@@H](OC(=O)Nc2ccc(-c3ncn(-c4ccc(OC(F)(F)C(F)(F)F)cc4)n3)cc2)[C@@H]1OC [Compound 207, {4-[1-(4-pentafluoroethyloxyphenyl)-1H-[1,2,4]triazol-3-yl]-phenyl}-carbamic acid (2S,3R,4R,5S,6S)-4-propoxy-3,5-dimethoxy-6-methyl-tetrahydropyran-2-yl ester]
BAW 50 ug/cm2 [1]: A (the compound was tested and at least 50 percent mortality was observed) | pest or weed control at 50 µg/cm2, 50 µg/cm2 [1]: > 50% | BAW HTS [2, 3]: B (either (1) the compound was tested and less than 50 percent mortality was observed or (2) the compound was not tested) | pest or weed control at 12 µg/well, 12 µg/well [2]: < 50%

COC1C(C)OC(ON=Cc2ccc(C3=NN(c4ccc(OC(F)(F)F)cc4)CC3)cc2)C(OC)C1OC (centres unmarked) [Compound 15]
BAW 50 ug/cm2 [1]: A (the compound was tested and at least 50 percent mortality was observed) | BAW HTS ([2]; 96-well HTS diet bioassay): B (either (1) the compound was tested and less than 50 percent mortality was observed or (2) the compound was not tested) | BAW HTS [2, 3]: B (either (1) the compound was tested and less than 50 percent mortality was observed or (2) the compound was not tested)

COC1C(C)OC(ON=Cc2ccc(-c3ccn(-c4ccc(C(C)(C)C)cc4)n3)cc2)C(OC)C1OC (centres unmarked) [Compound 11]
BAW 50 ug/cm2 [1]: A (the compound was tested and at least 50 percent mortality was observed) | BAW HTS ([2]; 96-well HTS diet bioassay): B (either (1) the compound was tested and less than 50 percent mortality was observed or (2) the compound was not tested) | BAW HTS [2, 3]: B (either (1) the compound was tested and less than 50 percent mortality was observed or (2) the compound was not tested)

CCO[C@@H]1[C@@H](OC)[C@H](C)O[C@@H](OC(=O)Nc2ccc(-c3noc(-c4ccc(OC(F)(F)F)cc4)n3)cc2)[C@@H]1OC [Compound 240]
BAW 50 ug/cm2 [1]: A (the compound was tested and at least 50 percent mortality was observed) | BAW HTS ([2]; 96-well HTS diet assay): A (the compound was tested and at least 50 percent mortality was observed) | BAW HTS [2, 3]: A (the compound was tested and at least 50 percent mortality was observed)

CCOC(=O)C1CC(c2ccc(C=NOC3OC(C)C(OC)C(OC)C3OC)cc2)=NN1c1ccc(OC(F)(F)F)cc1 (mixture of isomers) [Compound 13]
BAW 50 ug/cm2 [1]: A (the compound was tested and at least 50 percent mortality was observed) | BAW HTS ([2]; 96-well HTS diet bioassay): B (either (1) the compound was tested and less than 50 percent mortality was observed or (2) the compound was not tested) | BAW HTS [2, 3]: B (either (1) the compound was tested and less than 50 percent mortality was observed or (2) the compound was not tested)

COC1C(C)OC(ON=Cc2ccc(-c3ncn(-c4ccc(SC(F)(F)F)cc4)n3)cc2)C(OC)C1OC (centres unmarked) [Compound 87]
BAW 50 ug/cm2 [1]: A (the compound was tested and at least 50 percent mortality was observed) | BAW HTS ([2]; 96-well HTS diet bioassay): B (either (1) the compound was tested and less than 50 percent mortality was observed or (2) the compound was not tested) | BAW HTS [2, 3]: B (either (1) the compound was tested and less than 50 percent mortality was observed or (2) the compound was not tested)

CCCOC1C(OC)C(C)OC(ON=Cc2ccc(-c3ncc(-c4ccc(OC(F)(F)F)cc4)cn3)cc2)C1OC (centres unmarked) [Compound 144]
BAW 50 ug/cm2 [1]: A (the compound was tested and at least 50 percent mortality was observed) | BAW HTS ([2]; 96-well HTS diet assay): B (either (1) the compound was tested and less than 50 percent mortality was observed or (2) the compound was not tested) | BAW HTS [2, 3]: B (either (1) the compound was tested and less than 50 percent mortality was observed or (2) the compound was not tested)

CCO[C@@H]1[C@@H](OC)[C@H](C)O[C@H](OC(=O)Nc2ccc(C3CC(c4ccc(OC(F)(F)F)cc4)=NO3)cc2)[C@@H]1OC (some centres unmarked) [Compound 184]
BAW 50 ug/cm2 [1]: B (either (1) the compound was tested and less than 50 percent mortality was observed or (2) the compound was not tested) | BAW HTS ([2]; 96-well HTS diet assay): B (either (1) the compound was tested and less than 50 percent mortality was observed or (2) the compound was not tested) | BAW HTS [2, 3]: B (either (1) the compound was tested and less than 50 percent mortality was observed or (2) the compound was not tested)

CCCO[C@@H]1[C@@H](OC)[C@H](C)O[C@@H](OC(=O)N(CC)c2ccc(-c3ncn(-c4ccc(OC(F)(F)C(F)(F)F)cc4)n3)cc2)[C@@H]1OC [Compound 253, ethyl {4-[1-(4-pentafluoroethoxy-phenyl)-1H-[1,2,4]triazol-3-yl]-phenyl}-carbamic acid (2S,3R,4R,5S,6S)-4-propoxy-3,5-dimethoxy-6-methyl-tetrahydropyran-2-yl ester]
BAW 50 ug/cm2 [1]: A (the compound was tested and at least 50 percent mortality was observed) | pest or weed control at 50 µg/cm2, 50 µg/cm2 [1]: > 50% | BAW HTS [2, 3]: A (the compound was tested and at least 50 percent mortality was observed) | pest or weed control at 12 µg/well, 12 µg/well [2]: > 50%

C=C(C)c1nc(-c2ccc(NC(=O)O[C@@H]3O[C@@H](C)[C@H](OC)[C@@H](OCC)[C@H]3OC)cc2)nn1-c1ccc(OC(F)(F)F)cc1 [Compound 220]
BAW 50 ug/cm2 [1]: A (the compound was tested and at least 50 percent mortality was observed) | BAW HTS ([2]; 96-well HTS diet assay): B (either (1) the compound was tested and less than 50 percent mortality was observed or (2) the compound was not tested) | BAW HTS [2, 3]: B (either (1) the compound was tested and less than 50 percent mortality was observed or (2) the compound was not tested)

COC1C(C)OC(ON=Cc2ccc(-c3cn(-c4ccc(C(F)(F)F)cn4)cn3)cc2)C(OC)C1OC (centres unmarked) [Compound 32]
BAW 50 ug/cm2 [1]: A (the compound was tested and at least 50 percent mortality was observed) | BAW HTS ([2]; 96-well HTS diet bioassay): A (the compound was tested and at least 50 percent mortality was observed) | BAW HTS [2, 3]: A (the compound was tested and at least 50 percent mortality was observed)

CCOC1C(OC)C(C)OC(ON=Cc2ccc(-c3nc(-c4ccc(OC(F)(F)F)cc4)ns3)cc2)C1OC (centres unmarked) [Compound 128]
BAW 50 ug/cm2 [1]: A (the compound was tested and at least 50 percent mortality was observed) | BAW HTS ([2]; 96-well HTS diet bioassay): B (either (1) the compound was tested and less than 50 percent mortality was observed or (2) the compound was not tested) | BAW HTS [2, 3]: B (either (1) the compound was tested and less than 50 percent mortality was observed or (2) the compound was not tested)

C=CCO[C@@H]1[C@@H](OC)[C@H](C)O[C@@H](OC(=O)Nc2ccc(-c3ncn(-c4ccc(OC(F)(F)C(F)(F)F)cc4)n3)cc2)[C@@H]1OC [Compound 204]
BAW 50 ug/cm2 [1]: A (the compound was tested and at least 50 percent mortality was observed) | BAW HTS ([2]; 96-well HTS diet assay): A (the compound was tested and at least 50 percent mortality was observed) | BAW HTS [2, 3]: A (the compound was tested and at least 50 percent mortality was observed)

CCO[C@@H]1[C@@H](OC)[C@H](C)O[C@@H](OC(=O)N(C(=O)CCC(=O)OC)c2ccc(-c3ncn(-c4ccc(OC(F)(F)C(F)(F)F)cc4)n3)cc2)[C@@H]1OC [Compound 259, 4-(((2S,3R,4R,5S,6S)-4-ethoxy-3,5-dimethoxy-6-methyl-tetrahydropyran-2-yloxycarbonyl)-{4-[1-(4-pentafluoroethoxy-phenyl)-1H-[1,2,4]triazol-3-yl]-phenyl}-amino)-4-oxo-butyric acid methyl ester]
BAW 50 ug/cm2 [1]: A (the compound was tested and at least 50 percent mortality was observed) | pest or weed control at 50 µg/cm2, 50 µg/cm2 [1]: > 50% | BAW HTS [2, 3]: B (either (1) the compound was tested and less than 50 percent mortality was observed or (2) the compound was not tested) | pest or weed control at 12 µg/well, 12 µg/well [2]: < 50%

CCO[C@@H]1[C@@H](OC)[C@H](C)O[C@@H](OC(=O)N(COC)c2ccc(-c3ncn(-c4ccc(OC(F)(F)C(F)(F)F)cc4)n3)cc2)[C@@H]1OC [Compound 255, methoxymethyl {4-[1-(4-pentafluoroethoxyphenyl)-1H-[1,2,4]triazol-3-yl]-phenyl}-carbamic acid (2S,3R,4R,5S,6S)-4-ethoxy-3,5-dimethoxy-6-methyl-tetrahydropyran-2-yl ester]
BAW 50 ug/cm2 [1]: A (the compound was tested and at least 50 percent mortality was observed) | pest or weed control at 50 µg/cm2, 50 µg/cm2 [1]: > 50% | BAW HTS [2, 3]: B (either (1) the compound was tested and less than 50 percent mortality was observed or (2) the compound was not tested) | pest or weed control at 12 µg/well, 12 µg/well [2]: < 50%

CCO[C@@H]1[C@@H](OC)[C@H](C)O[C@@H](SC(=O)Nc2ccc(-c3cn(-c4ccc(OC(F)(F)F)cc4)cn3)cc2)[C@@H]1OC [Compound 177]
BAW 50 ug/cm2 [1]: B (either (1) the compound was tested and less than 50 percent mortality was observed or (2) the compound was not tested) | pest or weed control at 50 µg/cm2, 50 µg/cm2 [1]: < 50% | BAW HTS [2, 3]: A (the compound was tested and at least 50 percent mortality was observed) | pest or weed control at 12 µg/well, 12 µg/well [2]: > 50%

CCCc1ccc(-c2cc(-c3ccc(C=NOC4OC(C)C(OC)C(OC)C4OC)cc3)no2)cc1 (centres unmarked) [Compound 60]
BAW 50 ug/cm2 [1]: A (the compound was tested and at least 50 percent mortality was observed) | BAW HTS ([2]; 96-well HTS diet bioassay): A (the compound was tested and at least 50 percent mortality was observed) | BAW HTS [2, 3]: A (the compound was tested and at least 50 percent mortality was observed)
